Data published in patent US20190076384A1, “METHODS FOR TREATING UREA CYCLE DISORDERS” (priority 2017, published 2019).
Read-outs that look alike come from different tables or passages of the source.

Columns and labels:
CYP2C9 [1] = target: T1, CYP2C9 (Homo sapiens, UniProt P11712); assay: In vitro CYP inhibition study, human liver microsomes, CYP2C9
CYP3A4/5 [2] = assay: Induction of CYP3A4/5 in cultured human hepatocytes; conditions: for Relative potency (%): PAA 20.7 mM; for Fold induction: PAA 20.7 mM (concentration of maximum fold induction)
CYP2C19 = target: T2, CYP2C19 (Homo sapiens, UniProt P33261); assay type: in vitro ADME; conditions: for % Inhibition: S-Mephenytoin 4′-hydroxylase, 20.7 mM (2.818 mg/ml)
T2 construct: from tissue; host or cells: human liver microsomes

CYP2C8 = target: T3, CYP2C8 (Homo sapiens, UniProt P10632); assay: In vitro CYP inhibition study, human liver microsomes, CYP2C8; assay type: in vitro ADME; conditions: for % Inhibition: Taxol 6α-hydroxylase, 20.7 mM (2.818 mg/ml)
T3 construct: from tissue; host or cells: human liver microsomes
T3 sequence (P10632 1-490): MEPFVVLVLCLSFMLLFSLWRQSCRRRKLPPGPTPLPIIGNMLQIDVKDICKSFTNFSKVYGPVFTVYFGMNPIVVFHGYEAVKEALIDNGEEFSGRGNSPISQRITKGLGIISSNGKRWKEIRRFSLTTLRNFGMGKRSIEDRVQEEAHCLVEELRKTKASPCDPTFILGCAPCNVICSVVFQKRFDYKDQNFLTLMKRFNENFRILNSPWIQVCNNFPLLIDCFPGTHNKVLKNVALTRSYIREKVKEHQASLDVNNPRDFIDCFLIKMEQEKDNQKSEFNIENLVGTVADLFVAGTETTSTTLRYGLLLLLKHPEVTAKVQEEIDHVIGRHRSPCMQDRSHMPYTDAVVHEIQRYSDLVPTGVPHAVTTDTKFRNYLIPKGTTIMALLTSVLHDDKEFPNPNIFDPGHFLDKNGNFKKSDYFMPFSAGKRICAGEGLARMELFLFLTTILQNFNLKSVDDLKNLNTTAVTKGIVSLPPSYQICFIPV

CYP2D6 = CYP2D6 (Homo sapiens, UniProt P10635); conditions: for % Inhibition: Bufuralol 1′-hydroxylase, 20.7 mM (2.818 mg/ml)
CYP3A4/5 [3] = assay type: in vitro ADME, human; conditions: for % Inhibition: 20.7 mM (2.818 mg/ml)
CYP2C9 [4] = target: T1, CYP2C9; conditions: for % Inhibition: Diclofenac 4′-hydroxylase, 20.7 mM (2.818 mg/ml)
CYP1A2 = target: T4, CYP1A2 (Homo sapiens, UniProt P05177); assay type: in vitro ADME; conditions: for % Inhibition: 7-ethoxyresorufin-O-deethylase, 20.7 mM (2.818 mg/ml)
T4 construct: from tissue; host or cells: human liver microsomes
T4 sequence (P05177 1-516): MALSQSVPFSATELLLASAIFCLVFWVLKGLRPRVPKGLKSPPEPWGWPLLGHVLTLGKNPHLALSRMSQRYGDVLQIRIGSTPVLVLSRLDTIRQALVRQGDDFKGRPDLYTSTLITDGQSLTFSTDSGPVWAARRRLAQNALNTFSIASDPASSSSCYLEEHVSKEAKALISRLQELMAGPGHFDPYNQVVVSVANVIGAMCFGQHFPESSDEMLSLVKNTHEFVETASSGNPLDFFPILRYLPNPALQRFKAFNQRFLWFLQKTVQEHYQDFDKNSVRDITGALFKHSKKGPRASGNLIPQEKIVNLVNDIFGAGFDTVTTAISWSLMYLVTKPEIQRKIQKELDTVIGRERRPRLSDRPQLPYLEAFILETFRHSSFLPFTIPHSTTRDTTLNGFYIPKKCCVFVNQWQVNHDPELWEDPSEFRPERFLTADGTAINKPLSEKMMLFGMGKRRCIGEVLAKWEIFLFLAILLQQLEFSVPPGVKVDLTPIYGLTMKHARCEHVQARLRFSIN

[5] = at a concentration higher than the observed plasma concentrations

T1 sequence (P11712 whole entry): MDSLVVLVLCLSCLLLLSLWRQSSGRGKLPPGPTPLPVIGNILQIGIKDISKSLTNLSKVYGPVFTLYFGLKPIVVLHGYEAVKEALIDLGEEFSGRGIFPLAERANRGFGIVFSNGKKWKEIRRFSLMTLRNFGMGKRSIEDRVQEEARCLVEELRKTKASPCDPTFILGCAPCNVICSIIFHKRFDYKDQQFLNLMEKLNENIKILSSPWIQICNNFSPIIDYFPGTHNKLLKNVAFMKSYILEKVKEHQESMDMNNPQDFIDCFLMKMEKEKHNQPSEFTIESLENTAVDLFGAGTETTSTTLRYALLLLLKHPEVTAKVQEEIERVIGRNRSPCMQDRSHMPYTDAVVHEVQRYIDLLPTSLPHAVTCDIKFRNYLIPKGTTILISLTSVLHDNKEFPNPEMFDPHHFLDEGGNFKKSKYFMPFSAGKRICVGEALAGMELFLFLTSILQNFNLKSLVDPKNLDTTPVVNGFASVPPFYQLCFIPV
T2 sequence (P33261 whole entry): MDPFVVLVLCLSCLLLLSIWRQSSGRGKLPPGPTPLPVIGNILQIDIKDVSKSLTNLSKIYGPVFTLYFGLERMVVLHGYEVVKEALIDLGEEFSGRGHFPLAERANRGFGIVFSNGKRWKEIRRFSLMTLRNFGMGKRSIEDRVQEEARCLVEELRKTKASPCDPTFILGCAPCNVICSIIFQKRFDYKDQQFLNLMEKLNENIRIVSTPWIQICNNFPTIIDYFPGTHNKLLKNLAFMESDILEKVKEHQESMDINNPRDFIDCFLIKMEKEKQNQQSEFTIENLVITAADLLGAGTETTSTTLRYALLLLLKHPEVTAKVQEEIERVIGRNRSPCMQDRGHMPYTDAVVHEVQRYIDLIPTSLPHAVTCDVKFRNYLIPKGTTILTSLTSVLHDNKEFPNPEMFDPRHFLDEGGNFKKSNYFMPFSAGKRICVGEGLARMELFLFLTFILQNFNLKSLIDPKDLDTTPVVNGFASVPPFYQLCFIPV
Chain of CYP2D6 (P10635 whole entry): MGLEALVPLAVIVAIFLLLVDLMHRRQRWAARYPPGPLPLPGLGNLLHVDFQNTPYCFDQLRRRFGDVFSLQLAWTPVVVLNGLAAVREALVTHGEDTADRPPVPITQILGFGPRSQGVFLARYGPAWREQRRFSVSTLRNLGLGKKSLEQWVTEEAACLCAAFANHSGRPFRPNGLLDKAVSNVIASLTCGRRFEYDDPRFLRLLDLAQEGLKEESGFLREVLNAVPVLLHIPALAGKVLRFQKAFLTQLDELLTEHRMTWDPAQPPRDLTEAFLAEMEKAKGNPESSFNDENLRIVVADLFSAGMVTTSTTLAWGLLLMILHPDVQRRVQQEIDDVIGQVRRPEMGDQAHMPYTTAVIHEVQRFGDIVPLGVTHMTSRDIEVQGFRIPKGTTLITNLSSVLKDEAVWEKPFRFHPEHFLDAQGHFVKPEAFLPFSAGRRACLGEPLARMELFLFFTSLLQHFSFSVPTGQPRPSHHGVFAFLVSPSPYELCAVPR

For phenylacetate [PAA], the Ki (CYP2C9 [1]) was 15.1 mM, the “induction of CYP3A4/5” value (CYP3A4/5 [2]; cultured human hepatocytes, PAA) was under 1.8 fold and the “Relative potency (%)” value (CYP3A4/5 [2]; donor Hu0793) was 13.1%. The Fold induction (CYP3A4/5 [2]; donor Hu0793) was 1.4 fold, the “Relative potency (%)” value (CYP3A4/5 [2]; donor Hu4156) was 18.2% and the Fold induction (CYP3A4/5 [2]; donor Hu4156) was 1.7 fold. For the same substance, the “% Inhibition” value (CYP2C19; pre-incubation time 0 min) was 37%, the “% Inhibition” value (CYP2C19; pre-incubation time 30 min) was 37% and the “inhibition of CYP2C19 (in words)” value (CYP2C19; at 20.7 mM) was “inhibited”. For the same substance, the “% Inhibition” value (CYP2C8; pre-incubation time 0 min) was 50%, the “% Inhibition” value (CYP2C8; pre-incubation time 30 min) was 49% and the “inhibition of CYP2C8 (in words)” value (CYP2C8; at 20.7 mM) was “inhibited”. The “% Inhibition” value (CYP2D6; pre-incubation time 0 min) was 49%, the “% Inhibition” value (CYP2D6; pre-incubation time 30 min) was 57% and the “inhibition of CYP2D6 (in words)” value (CYP2D6; at 20.7 mM) was “inhibited”. The “% Inhibition” value (CYP3A4/5 [3]; Midazolam 1′-hydroxylase, pre-incubation time 0 min) was 63%, the “% Inhibition” value (CYP3A4/5 [3]; Midazolam 1′-hydroxylase, pre-incubation time 30 min) was 65% and the “% Inhibition” value (CYP3A4/5 [3]; Testosterone 6β-hydroxylase, pre-incubation time 0 min) was 60%. For the same substance, the “% Inhibition” value (CYP3A4/5 [3]; Testosterone 6β-hydroxylase, pre-incubation time 30 min) was 63%, the “inhibition of CYP3A4/5 (in words)” value (CYP3A4/5 [3]; at 20.7 mM) was “inhibited” and the “effect on CYP3A4 (in words)” value (CYP3A4/5 [3]; [5]) was “inhibitory effect”. The “% Inhibition” value (CYP2C9 [4]; pre-incubation time 0 min) was 47%, the “% Inhibition” value (CYP2C9 [4]; pre-incubation time 30 min) was 44% and the “inhibition of CYP2C9 (in words)” value (CYP2C9 [4]; at 20.7 mM) was “inhibited”. For the same substance, the “effect on CYP2C9 (in words)” value (CYP2C9 [4]; [5]) was “inhibitory effect”, the “[I]/Ki ratio, CYP2C9” value (CYP2C9 [4]; based on mean peak PAA concentration in UCD patients) was under 0.1 and the “% Inhibition” value (CYP1A2; pre-incubation time 0 min) was 58%. The “% Inhibition” value (CYP1A2; pre-incubation time 30 min) was 47% and the “inhibition of CYP1A2 (in words)” value (CYP1A2; at 20.7 mM) was “inhibited”.
